Source: PubChem BioAssay (NCI)
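Cells were grown in 96-well plates and exposed to each compound for 48 hours at five concentrations; endpoints were interpolated linearly between bracketing concentrations, or set to the highest concentration if not reached. TGI: total growth inhibition.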

What was measured:
Assay in all cases: NCI anticancer screen, dose series, 48 h
IGROV1 ovarian = system: IGROV1 ovarian
M14 melanoma = system: M14 melanoma
786-0 renal = system: 786-0 renal
SNB-19 CNS = system: SNB-19 CNS
SK-MEL-28 melanoma = system: SK-MEL-28 melanoma
UACC-257 melanoma = system: UACC-257 melanoma
CAKI-1 renal = system: CAKI-1 renal
TK-10 renal = system: TK-10 renal
RXF 393 renal = system: RXF 393 renal
PC-3 prostate = system: PC-3 prostate

SMILES	TGI (IGROV1 ovarian)	TGI (M14 melanoma)	TGI (786-0 renal)	TGI (SNB-19 CNS)	TGI (SK-MEL-28 melanoma)	TGI (UACC-257 melanoma)	TGI (CAKI-1 renal)	TGI (TK-10 renal)	TGI (RXF 393 renal)	TGI (PC-3 prostate)
COCN1C(=O)[C@@H]2C[C@@H](OC/C=C/CBr)CN2C(=O)c2ccccc21	26.5 µM	42.9 µM	53.9 µM	67.2 µM	45.4 µM	37.6 µM	38.7 µM	49.7 µM	51.3 µM	51.8 µM
CC(C)(C)C(=O)C(C#N)C(=O)C(C)(C)C	> 100 µM	> 100 µM	> 100 µM	> 100 µM	> 100 µM	> 100 µM	> 100 µM	> 100 µM	> 100 µM	> 100 µM
COc1cccc(C(=O)C(O)c2cccc(OC)c2OC)c1OC (stereo not given)	> 100 µM	> 100 µM	> 100 µM	> 100 µM	> 100 µM	> 100 µM	> 100 µM	> 100 µM	> 100 µM	> 100 µM
C[N+]12C=CC=C1C(N1CCCC1)c1sc(-c3ccc(Cl)cc3)cc12 (stereo not given)	39 µM	30.9 µM	28.8 µM	26.8 µM	31.6 µM	28.9 µM	> 100 µM	40.7 µM	31.9 µM	29.9 µM
COc1ccc2[nH]c3c(C)c4ccnc(NCCCN(C)CCCNC(=O)NCCCN(C)CCCNc5nccc6c(C)c7[nH]c8ccc(OC)cc8c7c(C)c56)c4c(C)c3c2c1	2.05 µM	1.33 µM	1.2 µM	2.13 µM	> 15.5 µM	> 14.3 µM	3.34 µM	> 50 µM	1.26 µM	2.79 µM
COc1cc2c(cc1C)NC(=O)/C2=C/c1c(Cl)n(C)c2ccccc12	17.1 µM	48.1 µM	30.7 µM	38.6 µM	62.6 µM	34.7 µM	24.4 µM	30.7 µM	19.6 µM	29.6 µM
CCN1CCc2sc3[nH]c(=S)n(C)c(=O)c3c2C1	> 100 µM	> 100 µM	> 100 µM	> 100 µM	> 100 µM	> 100 µM	> 100 µM	> 100 µM	> 100 µM	> 100 µM
COC(=O)C(I(OS(=O)(=O)c1ccc(C)cc1)c1ccccc1)=P(c1ccccc1)(c1ccccc1)c1ccccc1	37.7 µM	32.4 µM	28.9 µM	> 100 µM	28.7 µM	37.1 µM	> 100 µM	57 µM	39.2 µM	62 µM
c1ccc(C2(c3cc4ccccc4[nH]3)OCCO2)cc1	> 100 µM	> 100 µM	> 100 µM	> 100 µM	> 100 µM	99.8 µM	> 100 µM	> 100 µM	> 100 µM	> 100 µM
CC(C)(C)OC(=O)NCCNC(=O)OCc1ccccc1	> 100 µM	> 100 µM	> 100 µM	> 100 µM	> 100 µM	> 100 µM	> 100 µM	> 100 µM	> 100 µM	> 100 µM
CCC1(CC)C(=O)N(C(=O)c2ccc(Cl)cc2)N(C(=O)c2ccccc2Cl)C1=O	16.3 µM	> 100 µM	> 100 µM	> 100 µM	> 100 µM	> 100 µM	> 100 µM	> 100 µM	> 100 µM	> 100 µM
Cc1[nH]c(=O)nc2c1C(=O)N(C(C)C)C(NC(C)C)S2 (stereo not given)	> 100 µM	> 100 µM	> 100 µM	> 100 µM	> 100 µM	> 100 µM	> 100 µM	> 100 µM	> 100 µM	> 100 µM
COC(=O)c1cc(CNCCc2c[nH]c3ccccc23)on1	> 100 µM	> 100 µM	> 94.6 µM	> 100 µM	> 100 µM	> 100 µM	> 100 µM	> 100 µM	> 100 µM	> 100 µM
Cc1ccc(-c2c(C#N)c(O)n(NS(=O)(=O)c3ccccc3)c(=O)c2C#N)cc1	> 100 µM	> 100 µM	> 100 µM	> 100 µM	> 100 µM	> 100 µM	> 100 µM	> 100 µM	> 100 µM	> 100 µM
Cc1ccc(-c2cn3c(nc4ccccc43)c(C)n2)cc1	> 31.6 µM	> 100 µM	> 75.5 µM	> 100 µM	> 100 µM	> 100 µM	> 100 µM	> 100 µM	> 64.4 µM	> 100 µM
O=C1NC(N2CCCC(CO)C2)=N/C1=C\c1ccc(O)cc1 (stereo not given)	> 100 µM	> 100 µM	> 100 µM	> 100 µM	> 100 µM	> 100 µM	> 100 µM	> 100 µM	> 100 µM	> 100 µM
COc1ccc(/C=N/NC(=O)c2ccccc2Nc2ccccc2C(=O)N/N=C/c2ccc(OC)c(OC)c2)cc1OC	> 100 µM	> 100 µM	> 100 µM	> 100 µM	> 100 µM	> 100 µM	> 100 µM	> 100 µM	> 100 µM	> 100 µM
CC(C)NC(=O)OCc1c(COC(=O)NC(C)C)c(-c2ccc[n+](COC(=O)C3CCCCC3)c2)n2c1CCC2	> 100 µM	> 100 µM	> 100 µM	> 100 µM	> 100 µM	> 100 µM	68.6 µM	> 100 µM	> 100 µM	> 100 µM
